Legend:
[1] = test system: Er-mediated synthesis of Vtg in Atlantic cod PCLS; test: Vitellogenin ELISA in media of exposed precision-cut liver slices (PCLS); assay type: cell-based, Atlantic cod (Gadus morhua); details: 96 h; for Vtg synthesis in PCLS, result in words: 1, 10, 100 μM bisphenols or 0.1, 1, 10 nM EE2, Vtg in media by ELISA
Experimental: PCLS culturing and exposure assays were performed essentially as described previously,[42],[56] with the modifications described below. Juvenile Atlantic cod were killed by a blow to the head, and the liver was dissected out and placed in a Petri dish containing ice-cold PCLS buffer (122 mM NaCl, 4.8 mM KCl, 1.2 mM MgSO4, 11 mM Na2HPO4, 3.7 mM NaHCO3, […]). The liver was then cut into small tissue blocks (approximately 3 cm long, 2 cm wide, and 1–3 cm high) and kept in ice-cold complete culture medium (L-15 medium supplemented with 10% FBS and 1× antibiotic-antimycotic solution). For slicing, the tissue block was fixed on the specimen plate of a Leica vibrating blade microtome VT1200 (Leica, Wetzlar, Germany) using Loctite Super Glue (Clas Ohlson, Bergen, Norway), and 250 μm thick tissue slices were cut (under ice-cold PCLS buffer) and kept in a Petri dish with ice-cold complete culture medium. Using a sterile razor blade, the tissue slices (2 × 3 cm) were then divided into smaller pieces (approximately 4 × 4 mm) and distributed into a 12-well cell culture plate (Sarstedt, Nümbrecht, Germany), each well containing 6 slices and 2 mL of complete culture medium. The PCLS were preincubated at 10 °C for 2 h before exposure. After preincubation, 1 mL of the medium was removed from each well and replaced by 1 mL of fresh complete culture medium containing 2x the final desired concentration and incubated at 10 °C for 96 h with shaking at 50 rpm. […] At the end of the exposure, slices were collected with tweezers and rinsed briefly in cold PBS. Excess PBS was removed by carefully touching a dry surface of the culture plate with the slice 4 times before measuring the weight in a preweighed cryotube. The slices were then snap-frozen in liquid N2 and stored at −80 °C. The media was also sampled and stored at −80 °C for viability (LDH) assay and vitellogenin ELISA.
Vitellogenin (Vtg) in media collected from exposed PCLS was quantified using the Atlantic Cod Vitellogenin ELISA kit (Biosense Laboratories AS, Bergen, Norway) according to manufacturer’s instructions. Vtg was quantified in 100 μL of undiluted media and normalized to the weight of the liver tissue. Statistical analysis of ELISA data was performed with GraphPad Prism Software version 9 (GraphPad Prism, La Jolla, CA, USA) by using one-way ANOVA followed by Dunnett’s test (for normally distributed data) or Friedman test followed by Dunn’s test (for non-normally distributed data), as described previously for PCLS experiments (Yadetie et al.[42]).
Figure 5 Relative vitellogenin production in Atlantic cod precision-cut liver slices (PCLS) exposed to bisphenols and EE2. PCLS were exposed to 1, 10, and 100 μM bisphenols or 0.1, 1, and 10 nM EE2, for 96 h. EE2 was included as positive control for activation of the gmEra signaling pathway. Levels of induced Vtg in the PCLS media were measured using ELISA (Cod Vitellogenin ELISA kit, Biosense Laboratories AS). The data represents mean ± SEM of fold change (compared to solvent control) of Vtg levels from 4 to 10 fish. n = 8–10 for all bisphenols except for BADGE (n = 4). Asterisks denote significant changes (p < 0.05) compared to solvent control.

[2] = molecular target: T1, Atlantic cod androgen receptor alpha (gmAra) LBD (Gadus morhua, UniProt D5FIC7); test: Luciferase reporter gene assay, gmAra agonism (androgenic activity) in transfected COS-7 cells; details: COS-7, monkey, 24 h, read-out: gmAra Emax
T1 sequence (D5FIC7 409-718): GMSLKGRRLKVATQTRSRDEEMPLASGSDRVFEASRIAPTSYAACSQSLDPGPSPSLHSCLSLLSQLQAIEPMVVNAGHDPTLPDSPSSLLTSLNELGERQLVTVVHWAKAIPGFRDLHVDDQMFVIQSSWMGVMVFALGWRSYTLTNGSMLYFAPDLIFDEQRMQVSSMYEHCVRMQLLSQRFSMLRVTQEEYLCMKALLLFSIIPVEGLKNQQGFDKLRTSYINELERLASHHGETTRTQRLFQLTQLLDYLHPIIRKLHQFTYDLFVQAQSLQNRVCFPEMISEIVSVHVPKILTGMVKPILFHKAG
Experimental: Ligand activation of gmEra and gmAra was studied with a luciferase reporter gene assay in COS-7 cells transiently transfected with the pCMX-GAL4(DBD)-gmEra(LBD) or pCMX-GAL4(DBD)-gmAra(LBD) plasmid by using the TransIT-LT1 reagent (TransIT-LT1 Transfection Reagent, Mirus). Cells were seeded into 96-well plates (5000 cells/well) and incubated for 24 h before cotransfection with the plasmid mixture (100 ng/well). The plasmid mixture contained GAL4-UAS luciferase reporter plasmid (tk-(MH100)x4 luc), the pCMX-GAL4(DBD)-gmEra(LBD) or pCMX-GAL4(DBD)-gmAra(LBD) receptor plasmids (2:1 reporter:receptor plasmid mass ratio), and a plasmid constitutively producing the β-galactosidase enzyme used for normalization of transfection efficiency (pCMV- β-Gal). […] The maximum DMSO/methanol concentrations in the exposure wells were 0.5% (v/v) in DMEM medium without phenol red (Sigma-Aldrich). After exposure, cells were lysed, and luciferase and beta-galactosidase activities were measured as luminescence and absorbance (420 nm) after the addition of luciferin and ONPG substrates, respectively, using an Enspire Multimode plate reader (PerkinElmer, Waltham, Massachusetts, USA).
Figure 3 Androgenic activity of bisphenols. COS-7 cells were transiently transfected with gmAra LBD and exposed individually to 12 bisphenol analogs at increasing concentrations. […] The dose–response curves were created using nonlinear regression and the four-parameter logistic fit in Graphpad Prism v.9. For comparison, the dose–response curve of BPA (black line) is indicated together with each individual BP tested (red line). *p < 0.05 versus solvent control by one-way ANOVA and Dunnett’s multiple comparison post hoc test.

| Compound | Vtg synthesis in PCLS, result in words [1] | maximal fold induction [2] | concentration at which maximum Vtg levels were observed ([1]; 1, 10, 100 μM tested) |
| --- | --- | --- | --- |
| CC(C)(c1ccc(OCC2CO2)cc1)c1ccc(OCC2CO2)cc1 (centres unmarked) [BADGE] | small, but significant, decrease in the Vtg synthesis | 1 |  |
| Oc1ccc(C2(c3ccc(O)cc3)c3ccccc3-c3ccccc32)cc1 [BPFL] | only moderate and not statistically significant | 1.3 | 10 µM |

Source: publication PMC11325555, “Interaction of Bisphenol A and Its Analogs with Estrogen and Androgen Receptor from Atlantic Cod (Gadus morhua)” (Environmental Science & Technology, 2024)
